Results as given in patent US20100261751A1, “METHOD FOR D[…] OF THE TWO HUMAN IMMUNODEFICIENCY VIRUS (HIV) INTEGRASE ENZYMATIC […]” (priority 2007, published 2010).

Target: T1, HIV integrase (Human immunodeficiency virus type 1 group M subtype B, UniProt P04585)
T1 construct: stored proteins (integrase, wt, 49 μM in)
Assay: 3dQ assay: HIV integrase 3′-end processing fluorescence in vitro assay
Type: biochemical
Details: dose response, FIG. 1

T1 sequence (O75475 whole entry, other chains not shown): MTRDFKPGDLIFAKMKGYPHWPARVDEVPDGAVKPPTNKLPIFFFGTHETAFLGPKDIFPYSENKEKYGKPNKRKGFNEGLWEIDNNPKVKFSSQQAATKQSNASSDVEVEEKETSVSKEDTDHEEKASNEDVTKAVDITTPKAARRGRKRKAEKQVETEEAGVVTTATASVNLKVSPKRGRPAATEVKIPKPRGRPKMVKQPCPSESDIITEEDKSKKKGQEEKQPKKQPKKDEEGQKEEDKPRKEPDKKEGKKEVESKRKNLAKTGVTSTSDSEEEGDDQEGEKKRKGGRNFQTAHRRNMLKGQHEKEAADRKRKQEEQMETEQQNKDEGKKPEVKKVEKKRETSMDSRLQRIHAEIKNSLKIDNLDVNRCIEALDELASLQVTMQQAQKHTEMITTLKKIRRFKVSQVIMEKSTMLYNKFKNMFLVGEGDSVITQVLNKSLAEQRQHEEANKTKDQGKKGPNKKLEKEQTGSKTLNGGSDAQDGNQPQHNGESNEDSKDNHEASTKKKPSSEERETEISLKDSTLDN

SMILES: O=C(O)C(=O)CC(=O)c1cccn1Cc1ccc(F)cc1 [L731,988]
- inhibition of 3′-end processing (result in words): only showed a weak response
